According to paper PMC7345905, “Microbial Metabolite Urolithin B Inhibits Recombinant Human Monoamine Oxidase A Enzyme” (Metabolites, 2020):
Several values for one entry are separate records, joined by “and”; a condition that tells them apart may be missing. Equal values may be shown once.

Molecular target: T1, human recombinant MAO-A (Homo sapiens, UniProt P21397)
T1 construct: purchased Sigma-Aldrich
T1 sequence (P21397 1-527): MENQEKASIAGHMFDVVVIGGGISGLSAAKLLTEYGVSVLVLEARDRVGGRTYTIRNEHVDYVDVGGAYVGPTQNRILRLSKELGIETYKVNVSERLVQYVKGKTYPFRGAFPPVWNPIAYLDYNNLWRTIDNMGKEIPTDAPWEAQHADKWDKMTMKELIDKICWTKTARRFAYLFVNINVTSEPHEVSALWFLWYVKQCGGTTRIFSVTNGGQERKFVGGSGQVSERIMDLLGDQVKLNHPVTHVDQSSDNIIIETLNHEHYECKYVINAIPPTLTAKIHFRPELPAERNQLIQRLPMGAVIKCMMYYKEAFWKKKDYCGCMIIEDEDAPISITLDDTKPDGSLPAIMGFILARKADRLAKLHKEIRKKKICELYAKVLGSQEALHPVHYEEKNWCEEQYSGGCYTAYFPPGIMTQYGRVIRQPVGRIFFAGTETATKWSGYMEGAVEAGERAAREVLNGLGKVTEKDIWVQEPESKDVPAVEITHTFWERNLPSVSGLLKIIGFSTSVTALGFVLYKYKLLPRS
Experiment: MAO-A inhibition kinetics (variable substrate, Lineweaver–Burk plot)
Format: biochemical
Set-up: Michaelis-Menten best-fit Vmax of MAO-A / Michaelis-Menten best-fit Vmax of MAO-A, Average: unit not given here
Settings: for MAO-A assay signal (luminescence) / Transformed (reciprocal of MAO-A assay signal) / Michaelis-Menten best-fit Vmax of MAO-A: N=1-3
Experimental: MAO inhibition assays were performed using a MAO-Glo™ Assay kit (Promega) according to the manufacturer’s instructions. Briefly, 1 µg of human recombinant MAO-A and MAO-B enzyme isoforms were incubated with 160 and 16 µM of MAO substrates, respectively. […] The enzyme reaction was quenched by the addition of a luciferin detection reagent. […] An equal volume of dimethyl sulfoxide (0.1%) was added to the enzyme assay as a control. After 1 h of incubation, the luminescence was measured with a multimode microplate reader (Synergy HT, BioTek, Winooski, VT, USA) to determine the MAO enzyme activities. Initially, the inhibition potential of all the test compounds was evaluated at a concentration of 100 μM. The control reaction (with no inhibitor) with vehicle (DMSO 0.1%) was set at 100% activity. To determine IC50 of the test compounds, the dose dependent enzyme assays were performed. We used range of 0.1 to 50 μM concentrations for MAO-A and 0.1 to 200 μM concentrations of test compounds for the MAO-B enzyme activities. The type of enzyme inhibition was determined using variable concentrations of MAO-A substrate (10–360 µM) and MAO-B substrate (2–64 µM) for the respective enzyme assay. […] A Lineweaver–Burk double reciprocal plot was generated, and the mode of inhibition was determined by visual examination of the plot. The slope of the reciprocal plots was plotted against the inhibitor concentrations and determined the x-axis intercept that represented the inhibitor constant, Ki value.
All experiments were performed in triplicates and data are presented as mean ± standard error of the mean (SEM). The raw data are provided in Supplementary Data, Table S1. Enzyme kinetic data were analyzed using the Lineweaver–Burk plot. Statistical analysis was performed by Student’s t-test using GraphPad Prism Ver. 7.0 (GraphPad Prism Software Inc., San Diego, CA, USA).

[1] = UroB 0.4 µM, MAO-A substrate 10 uM
[2] = UroB 0.4 µM, MAO-A substrate 20 uM
[3] = UroB 0.4 µM, MAO-A substrate 40 uM
[4] = UroB 0.4 µM, MAO-A substrate 80 uM
[5] = UroB 0.4 µM, MAO-A substrate 160 uM
[6] = UroB 0.4 µM, MAO-A substrate 320 uM
[7] = UroB 2 µM, MAO-A substrate 10 uM
[8] = UroB 2 µM, MAO-A substrate 20 uM
[9] = UroB 2 µM, MAO-A substrate 40 uM
[10] = UroB 2 µM, MAO-A substrate 80 uM
[11] = UroB 2 µM, MAO-A substrate 160 uM
[12] = UroB 2 µM, MAO-A substrate 320 uM

mode of inhibition of MAO-A (Lineweaver–Burk plot): mixed mode of inhibition
MAO-A assay signal (luminescence), Average [1]: 1545
MAO-A assay signal (luminescence) [1]: 1603 and 1392 and 1640
MAO-A assay signal (luminescence), Average [2]: 2811.33
MAO-A assay signal (luminescence) [2]: 2815 and 2835 and 2784
MAO-A assay signal (luminescence), Average [3]: 5085
MAO-A assay signal (luminescence) [3]: 5099 and 4835 and 5321
MAO-A assay signal (luminescence), Average [4]: 9642.33
MAO-A assay signal (luminescence) [4]: 9741 and 9698 and 9488
MAO-A assay signal (luminescence), Average [5]: 17162.3
MAO-A assay signal (luminescence) [5]: 17107 and 16984 and 17396
MAO-A assay signal (luminescence), Average [6]: 26885
MAO-A assay signal (luminescence) [6]: 27251 and 26905 and 26499
Transformed (reciprocal of MAO-A assay signal), Average (UroB 0.4 µM, [1/S] 0.003125): 3.72e-5
Transformed (reciprocal of MAO-A assay signal) (UroB 0.4 µM, [1/S] 0.003125): 3.67e-5 and 3.717e-5 and 3.774e-5
Transformed (reciprocal of MAO-A assay signal), Average (UroB 0.4 µM, [1/S] 0.00625): 5.827e-5
Transformed (reciprocal of MAO-A assay signal) (UroB 0.4 µM, [1/S] 0.00625): 5.846e-5 and 5.888e-5 and 5.748e-5
Transformed (reciprocal of MAO-A assay signal), Average (UroB 0.4 µM, [1/S] 0.0125): 0.0001037
Transformed (reciprocal of MAO-A assay signal) (UroB 0.4 µM, [1/S] 0.0125): 0.0001027 and 0.0001031 and 0.0001054
Transformed (reciprocal of MAO-A assay signal), Average (UroB 0.4 µM, [1/S] 0.025): 0.0001967
Transformed (reciprocal of MAO-A assay signal) (UroB 0.4 µM, [1/S] 0.025): 0.0001961 and 0.0002068 and 0.0001879
Transformed (reciprocal of MAO-A assay signal), Average (UroB 0.4 µM, [1/S] 0.05): 0.0003557
Transformed (reciprocal of MAO-A assay signal) (UroB 0.4 µM, [1/S] 0.05): 0.0003552 and 0.0003527 and 0.0003592
Transformed (reciprocal of MAO-A assay signal), Average (UroB 0.4 µM, [1/S] 0.1): 0.0006472
Transformed (reciprocal of MAO-A assay signal) (UroB 0.4 µM, [1/S] 0.1): 0.0006238 and 0.0007184 and 0.0006098
MAO-A assay signal (luminescence), Average [7]: 917
MAO-A assay signal (luminescence) [7]: 965 and 892 and 894
MAO-A assay signal (luminescence), Average [8]: 1607
MAO-A assay signal (luminescence) [8]: 1578 and 1604 and 1639
MAO-A assay signal (luminescence), Average [9]: 2957.33
MAO-A assay signal (luminescence) [9]: 3058 and 2874 and 2940
MAO-A assay signal (luminescence), Average [10]: 5505.33
MAO-A assay signal (luminescence) [10]: 5631 and 5490 and 5395
MAO-A assay signal (luminescence), Average [11]: 10332.7
MAO-A assay signal (luminescence) [11]: 10318 and 10224 and 10456
MAO-A assay signal (luminescence), Average [12]: 17850.7
MAO-A assay signal (luminescence) [12]: 18126 and 17343 and 18083
Transformed (reciprocal of MAO-A assay signal), Average (UroB 2 µM, [1/S] 0.003125): 5.602e-5
Transformed (reciprocal of MAO-A assay signal) (UroB 2 µM, [1/S] 0.003125): 5.517e-5 and 5.766e-5 and 5.53e-5
Transformed (reciprocal of MAO-A assay signal), Average (UroB 2 µM, [1/S] 0.00625): 9.678e-5
Transformed (reciprocal of MAO-A assay signal) (UroB 2 µM, [1/S] 0.00625): 9.6918e-5 and 9.781e-5 and 9.564e-5
Transformed (reciprocal of MAO-A assay signal), Average (UroB 2 µM, [1/S] 0.0125): 0.0001816
Transformed (reciprocal of MAO-A assay signal) (UroB 2 µM, [1/S] 0.0125): 0.0001776 and 0.0001821 and 0.0001854
Transformed (reciprocal of MAO-A assay signal), Average (UroB 2 µM, [1/S] 0.025): 0.0003381
Transformed (reciprocal of MAO-A assay signal) (UroB 2 µM, [1/S] 0.025): 0.000327 and 0.0003479 and 0.0003401
Transformed (reciprocal of MAO-A assay signal), Average (UroB 2 µM, [1/S] 0.05): 0.0006223
Transformed (reciprocal of MAO-A assay signal) (UroB 2 µM, [1/S] 0.05): 0.0006337 and 0.0006234 and 0.0006101
Transformed (reciprocal of MAO-A assay signal), Average (UroB 2 µM, [1/S] 0.1): 0.001091
Transformed (reciprocal of MAO-A assay signal) (UroB 2 µM, [1/S] 0.1): 0.001036 and 0.001121 and 0.001119
Michaelis-Menten best-fit Vmax of MAO-A, Average (in presence of UroB 0.4 uM): 65357.3
Michaelis-Menten best-fit Vmax of MAO-A (in presence of UroB 0.4 uM): 61114 and 67822 and 67136
Michaelis-Menten best-fit Vmax of MAO-A, Average (in presence of UroB 2 uM): 66008.7
Michaelis-Menten best-fit Vmax of MAO-A (in presence of UroB 2 uM): 58741 and 70969 and 68316
Ki (x-axis intercept of slopes of Lineweaver–Burk plots vs inhibitor concentration): 2300 nM
Compound: O=c1oc2cc(O)ccc2c2ccccc12 [UB, urolithin-B]
